# Measurements reported in patent US7371766B2, “Curcumin analogs with anti-tumor and anti-angiogenic properties” (Emory University, priority 1999, dated 2008).
# Legend:
# KM12 = assay: cells; details: Homo sapiens, KM12, 48 h
# NCI-H23 = assay: cells; details: Homo sapiens, NCI-H23, 48 h
# HCT-116 = assay: cells; details: Homo sapiens, HCT-116, 48 h
# SR = assay: cells; details: Homo sapiens, 48 h
# LOX IMVI = assay: cells; details: Homo sapiens, 48 h
# HS 578T = assay: cells; details: Homo sapiens, 48 h
# A549 = assay: cells; details: Homo sapiens, A549, 48 h
# HCC-2998 = assay: cells; details: Homo sapiens, HCC 2998, 48 h
# IGROV1 = assay: cells; details: Homo sapiens, IGROV-1, 48 h
# RPMI-8226 = assay: cells; details: Homo sapiens, RPMI-8226, 48 h
# OVCAR-8 = assay: cells; details: Homo sapiens, OVCAR-8, 48 h
# UO-31 = assay: cells; details: Homo sapiens, UO-31, 48 h
# SW-620 = assay: cells; details: Homo sapiens, SW-620, 48 h
# [1] = tested on: Sixty human tumor cell lines; assay: cells; details: 48 h
# K-562 = assay: cells; details: Homo sapiens, K562, 48 h
# OVCAR-3 = assay: cells; details: Homo sapiens, OVCAR-3, 48 h
# 786-0 = assay: cells; details: Homo sapiens, 786-0, 48 h
# NCI-H460 = assay: cells; details: Homo sapiens, NCI-H460, 48 h
# [2] = tested on: Vascular Endothelial Growth Factor (VEGF) production by human melanoma cell line RPMI-7951; assay: VEGF ELISA, RPMI-7951; details: for VEGF / VEGF ELISA: RPMI-7951; for VEGF ELISA: DMSO control 3713
# SK-MEL-5 = assay: cells; details: Homo sapiens, SK-MEL-5, 48 h
# OVCAR-4 = assay: cells; details: Homo sapiens, OVCAR-4, 48 h
# SF-539 = assay: cells; details: Homo sapiens, SF-539, 48 h
# SK-MEL-28 = assay: cells; details: Homo sapiens, SK-MEL-28, 48 h
# MOLT-4 = assay: cells; details: Homo sapiens, MOLT-4, 48 h
# MDA-N = assay: cells; details: Homo sapiens, 48 h
# CAKI-1 = assay: cells; details: Homo sapiens, CAKI-1, 48 h
# MCF-7 = assay: cells; details: Homo sapiens, MCF7, 48 h
# SK-OV-3 = assay: cells; details: Homo sapiens, SK-OV-3, 48 h
# MDA-MB-435 = assay: cells; details: Homo sapiens, MDA-MB-435, 48 h
# [3] = read-out: Median Growth Inhibitory Concentration (GI50)
# [4] = read-out: Median Lethal Concentration (LC50)
compound,measurement,setting,value
CC1(/C=C/c2ccccc2O)C=Cc2ccccc2O1 (stereo not drawn) [EF7],GI50,KM12; [3],17.1 µM
same,CC50,KM12; [4],55.5 µM
same,GI50,NCI-H23; [3],17.6 µM
same,CC50,NCI-H23; [4],62.9 µM
same,GI50,HCT-116; [3],17.6 µM
same,CC50,HCT-116; [4],57.6 µM
same,GI50,SR; [3],15.2 µM
same,CC50,SR; [4],76.8 µM
same,GI50,LOX IMVI; [3],17.2 µM
same,CC50,LOX IMVI; [4],73.4 µM
same,GI50,HS 578T; [3],22.4 µM
same,CC50,HS 578T; [4],> 100 µM
same,GI50,A549; [3],14.9 µM
same,CC50,A549; [4],53.3 µM
same,GI50,HCC-2998; [3],18.4 µM
same,CC50,HCC-2998; [4],56.8 µM
same,GI50,IGROV1; [3],15.9 µM
same,CC50,IGROV1; [4],60.9 µM
same,GI50,RPMI-8226; [3],14.8 µM
same,CC50,RPMI-8226; [4],92.7 µM
same,GI50,OVCAR-8; [3],17 µM
same,CC50,OVCAR-8; [4],86.4 µM
same,GI50,UO-31; [3],13.5 µM
same,CC50,UO-31; [4],51.3 µM
same,GI50,SW-620; [3],16.2 µM
same,CC50,SW-620; [4],65.9 µM
same,GI50,"[1]; read-out: Median Growth Inhibitory Concentration (GI50), Mean",15.8 µM
same,CC50,"[1]; read-out: Median Lethal Concentration (LC50), Mean",61.7 µM
same,GI50,K-562; [3],14.9 µM
same,CC50,K-562; [4],70.7 µM
same,GI50,OVCAR-3; [3],15.6 µM
same,CC50,OVCAR-3; [4],54.5 µM
same,GI50,786-0; [3],16.4 µM
same,CC50,786-0; [4],54.8 µM
same,GI50,NCI-H460; [3],17.6 µM
same,CC50,NCI-H460; [4],66.8 µM
same,activity at 20 µM,"[2]; Homo sapiens, RPMI-7951, 72 h, read-out: VEGF",27%
same,GI50,SK-MEL-5; [3],15.5 µM
same,CC50,SK-MEL-5; [4],53.7 µM
same,GI50,OVCAR-4; [3],14.1 µM
same,CC50,OVCAR-4; [4],53.1 µM
same,GI50,SF-539; [3],17.3 µM
same,CC50,SF-539; [4],55.7 µM
same,GI50,SK-MEL-28; [3],17.4 µM
same,CC50,SK-MEL-28; [4],62.9 µM
same,GI50,MOLT-4; [3],7.7 µM
same,CC50,MOLT-4; [4],64.7 µM
same,GI50,MDA-N; [3],16.1 µM
same,CC50,MDA-N; [4],56.9 µM
same,GI50,CAKI-1; [3],14.3 µM
same,CC50,CAKI-1; [4],52.3 µM
same,GI50,MCF-7; [3],18 µM
same,CC50,MCF-7; [4],65.9 µM
same,GI50,SK-OV-3; [3],16.6 µM
same,CC50,SK-OV-3; [4],56.2 µM
same,GI50,MDA-MB-435; [3],17.5 µM
same,CC50,MDA-MB-435; [4],56 µM
C(=C\c1ccccc1)/S/C=C/c1ccccc1 [EF15],VEGF,"[2]; 5 μM, DMSO = 100",28%
same,VEGF ELISA,[2]; 5 μM,2361 pg/ml/well
same,VEGF,"[2]; 5 μM, DMSO control 4197 (EF-25: 1045)",1187 pg/mL
same,VEGF,"[2]; 20 μM, DMSO = 100",22%
same,VEGF ELISA,[2]; 20 μM,894 pg/ml/well
same,VEGF,"[2]; 20 μM, DMSO control 4197",938 pg/mL
